System: CHIKV
Type: cell-based, chikungunya virus

Row | Substance | Score_si1 | Score_si2 | Score_si4 | Score_si3
1 | Hs_ACO2_5 (CGGGAAGACATTGCCAATCTA; chemistry not given here) | 2.43 |  |  | 
2 | Hs_ACYP1_1 (AAGGATTACCACTGTACACAA; chemistry not given here) [reference compound] | -2.79 |  |  | 
3 | Hs_ADPRHL1_1 (CCCGACAATTATGATGCAGAA; chemistry not given here) [reference compound] | -2.15 |  |  | 
4 | Hs_ANKRD9_1 (AAGAGAGGTATGGGACCTGAA; chemistry not given here) | 2.5 |  |  | 
5 | Hs_ANKRD9_2 (CTCCCAGGAGCTAACGTATAA; chemistry not given here) |  | 2.08 |  | 
6 | Hs_AOF2_2 (ACATCTTACCTTAGTCATCAA; chemistry not given here) |  |  | 0.88 | 
7 | Hs_AOF2_3 (ACGAGTTGCCACATTTCGCAA; chemistry not given here) |  |  |  | 1.26
8 | Hs_AP2M1_3 (ACGTGTGACTTCGTCCAGTTA; chemistry not given here) | 2.57 |  |  | 
9 | Hs_AP3S2_1 (TGGGATGGTGTTGGAAACAAA; chemistry not given here) |  | 1.11 |  | 
10 | Hs_AP3S2_2 (CAGGGCTTAGGCGCCCATAAA; chemistry not given here) | 1.97 |  |  | 
11 | Hs_APEX2_3 (AGGGCCCTTCATCGATAGCTA; chemistry not given here) [reference compound] | -3.29 |  |  | 
12 | Hs_APEX2_5 (ACGCTGCAGCACAACAATCAA; chemistry not given here) [reference compound] |  |  | -0.1 | 
13 | Hs_APPL_2 (CAGGAATTTCTACAATAATAA; chemistry not given here) [reference compound] | -2.3 |  |  | 
14 | Hs_APPL_3 (TAGGAATAGGATAATGATATA; chemistry not given here) [reference compound] |  | -1.06 |  | 
15 | Hs_AQP3_2 (CTGGATGTACATACATAAGTA; chemistry not given here) |  |  |  | 1.09
16 | Hs_AQP3_3 (CTGGATCAAGCTGCCCATCTA; chemistry not given here) | 1.31 |  |  | 
17 | Hs_ASH2L_1 (CCGAGTAACTAACTTATTTAA; chemistry not given here) |  | 1.07 |  | 
18 | Hs_ASH2L_3 (TTGGAACACCCGTTTAACAAA; chemistry not given here) | 1.11 |  |  | 
19 | Hs_ATF1_6 (AACCTAGTACATTACTAAATA; chemistry not given here) [reference compound] |  |  | -0.75 | 
20 | Hs_ATF1_7 (CCAATAAATTCTAAATTACAA; chemistry not given here) [reference compound] |  | -1.38 |  | 
21 | Hs_ATF1_8 (CTGCATCAGGAGATATGCAAA; chemistry not given here) [reference compound] | -1.45 |  |  | 
22 | Hs_ATP6AP2_1 (ATGGGCTAATATGGATACTAA; chemistry not given here) |  | 0.84 |  | 
23 | Hs_ATP6AP2_2 (AAGAGTGTATATGGTAGGGAA; chemistry not given here) |  |  | 0.62 | 
24 | Hs_ATP6AP2_3 (AAGGACTATCCTTGAGGCAAA; chemistry not given here) | 1.26 |  |  | 
25 | Hs_ATP6AP2_5 (CAAGTGCTACATGATATTTCA; chemistry not given here) |  |  |  | 0.69
26 | Hs_ATP6V0C_2 (CTGGATGTTTATTTATAAAGA; chemistry not given here) | 3.5 |  |  | 

Row | Substance | Score_si1 | Score_si2 | Score_si4 | Score_si3
27 | Hs_BCHE_2 (CGGGTTGAAAGAGTTATTGTA; chemistry not given here) |  | 0.74 |  | 
28 | Hs_BCHE_3 (CAGGAGTGAGTGAGTTTGGAA; chemistry not given here) |  |  |  | 0.6
29 | Hs_BCHE_4 (CAGAACGTTGAACTTAGCTAA; chemistry not given here) | 0.93 |  |  | 
30 | Hs_BOP1_2 (CTGCCATGGCATGGTGTACAA; chemistry not given here) |  | 2.23 |  | 
31 | Hs_BRD8_1 (TGCAATGACATTGCAACGAAA; chemistry not given here) |  |  | 0.57 | 
32 | Hs_BRD8_4 (CCGGCTGTCTCCACTACTGAA; chemistry not given here) | 2.93 |  |  | 
33 | Hs_C14orf160_1 (AAAGATTTGAATTATAAATAA; chemistry not given here) [reference compound] |  |  |  | -1.03
34 | Hs_C14orf160_2 (ATGGAGTTACTGAAATGTATA; chemistry not given here) [reference compound] |  | -1.06 |  | 
35 | Hs_C15orf15_1 (CAGCATTTGTATAGTAACTAA; chemistry not given here) | 1.89 |  |  | 
36 | Hs_CAB39L_2 (GCCAATGTCTTTGGACTGTAA; chemistry not given here) | 2.37 |  |  | 
37 | Hs_CALM2_5 (ACAAAGGAATTGGGAACTGTA; chemistry not given here) |  |  | 0.05 | 
38 | Hs_CALM2_7 (CAAAGGAATTGGGAACTGTAA; chemistry not given here) | 3.2 |  |  | 
39 | Hs_CAMKK2_3 (TAGCAGCATGTCCTACGGAAA; chemistry not given here) |  |  | 1.01 | 
40 | Hs_CAMKK2_4 (sense ACAGAAAGGGCTTGAAATTTA; chemistry not given here) |  |  |  | 1.25
41 | Hs_CAMKK2_6 (sense CCGCAAGATCTTCTCTGGGAA; chemistry not given here) | 1.65 |  |  | 
42 | Hs_CAMKK2_7 (sense CTAGCTGATTGTTGTGGTCAA; chemistry not given here) |  | 1.31 |  | 
43 | Hs_CCDC6_1 (sense ATGGATAATTATCGTATATTA; chemistry not given here) [reference compound] | -2.65 |  |  | 
44 | Hs_CCDC6_2 (sense CAGGAATTTCAGGTCAACAAA; chemistry not given here) [reference compound] |  | -0.83 |  | 
45 | Hs_CCNF_2 (sense AACCCAAGCGTTGGAACTGTA; chemistry not given here) | 2.05 |  |  | 
46 | Hs_CCNF_3 (sense CACAGATGGCGTCAATGTGAA; chemistry not given here) |  | 1.09 |  | 
47 | Hs_CCNF_7 (sense CACGGACAACACTTACAAGTA; chemistry not given here) |  |  |  | 0.92
48 | Hs_CDC25A_1 (sense AAGGCGCTATTTGGCGCTTCA; chemistry not given here) |  | 1.56 |  | 
49 | Hs_CDK4_1 (sense CCGAACTGACCGGGAGATCAA; chemistry not given here) |  | 1.51 |  | 
50 | Hs_CDK4_2 (sense CAAGGTAACCCTGGTGTTTGA; chemistry not given here) | 1.6 |  |  | 
51 | Hs_CDK4_3 (sense ACCCTGGTGTTTGAGCATGTA; chemistry not given here) |  |  |  | 1.02
52 | Hs_CGI-12_1 (sense AAGATGTTAACTGCAAATAAA; chemistry not given here) [reference compound] | -2.28 |  |  | 

Row | Substance | Score_si1 | Score_si2 | Score_si4 | Score_si3
53 | Hs_CHD8_1 (sense CAGGAGGTTATTGGAGACCAA; chemistry not given here) |  | 1.61 |  | 
54 | Hs_CHD8_2 (sense AAGGATAAGAGGATACATCAA; chemistry not given here) |  |  |  | 1.53
55 | Hs_CIZ1_1 (sense CAGGTGAGGTCCAGAGATATA; chemistry not given here) [reference compound] | -1.69 |  |  | 
56 | Hs_CIZ1_2 (sense CAGCATGGAAGAGATTCAGAA; chemistry not given here) [reference compound] |  | -1.05 |  | 
57 | Hs_CLCN6_2 (sense CCGGTGAATGTTATTGGAATT; chemistry not given here) |  |  |  | -0.01
58 | Hs_CLCN6_4 (sense AAGATGTGAATTCAAGTATCA; chemistry not given here) | 2.72 |  |  | 
59 | Hs_CLK1_2 (sense AACGTGATGAACGCACCTTAA; chemistry not given here) |  |  |  | 1.36
60 | Hs_CLK1_4 (sense CCGTATTTCCAACACACGATA; chemistry not given here) |  |  | 0.91 | 
61 | Hs_CLPP_1 (sense CACGATGCAGTACATCCTCAA; chemistry not given here) |  |  | 0.97 | 
62 | Hs_CLPP_3 (sense GCCCATCCACATGTACATCAA; chemistry not given here) |  |  |  | 1.41
63 | Hs_CLTC_11 (sense ACAGTTCTACTTAGAATTCAA; chemistry not given here) | 2.42 |  |  | 
64 | Hs_CLTC_12 (sense CCGGAGAGATTTCTTCGTGAA; chemistry not given here) |  | 2.21 |  | 
65 | Hs_CNOT1_1 (sense CAGCTGGAATGGCTATGATTA; chemistry not given here) |  | 2.61 |  | 
66 | Hs_CNOT1_2 (sense CCAAGTTTGAATTTCAAGGAA; chemistry not given here) | 2.81 |  |  | 
67 | Hs_CNOT3_1 (sense CTCGGACACTGTGGAATTCTA; chemistry not given here) | 2.54 |  |  | 
68 | Hs_CNOT3_2 (sense ACGGCTGAGGGACCAAATCAA; chemistry not given here) |  |  |  | 1.32
69 | Hs_COPG_2 (sense CAGGAAAGGGACATTGTAAAT; chemistry not given here) |  | 2.25 |  | 
70 | Hs_COPS2_1 (sense CACGATATACTGCACTAGATA; chemistry not given here) |  | 1.3 |  | 
71 | Hs_COPS2_3 (sense ATGAATAGATATAAGCAGCTA; chemistry not given here) | 2.07 |  |  | 
72 | Hs_COPS2_4 (sense ATCCATTAATTCTATTCTTGA; chemistry not given here) |  |  | 1.19 | 
73 | Hs_CRSP7_1 (sense TACGGTTAACTTGGACGGGCA; chemistry not given here) [reference compound] |  | -1.45 |  | 
74 | Hs_CRSP7_2 (sense GAGAAATACCCTATTACCAAA; chemistry not given here) [reference compound] | -1.9 |  |  | 
75 | Hs_CRSP8_1 (sense AACGAGAATGTCTACACAGAA; chemistry not given here) [reference compound] | -2.6 |  |  | 
76 | Hs_CRSP8_2 (sense TCGAACAATAGTAAAGGGATA; chemistry not given here) [reference compound] |  | -1.08 |  | 
77 | Hs_CSNK1A1_3 (sense AAGAACTTAATTTCAGTATAA; chemistry not given here) |  |  |  | 1.65
